Assays:
[1] = Plasma total radioactivity pharmacokinetics in SD rats (Group 2); assay type: in vivo, rat
Protocol: (§1) The study utilized 2 groups of male SD rats (Groups 1 and 2) and 1 group of male LE rats (Group 3); which were obtained from Hilltop Lab Animals, Inc. (Scottdale, Pa.). Group 1 was used for evaluation of excretion mass balance; Group 2 was used for evaluation of plasma total radioactivity PK; and Group 3 was used for evaluation of tissue distribution of total radioactivity. All rats received a single PO dose of [^14C]MGL-3196. The target dose was 5 mg/kg using a formulation prepared in a 4% DMSO/96% of 2% Klucel, 0.1% Tween-80, 0.09% methylparaben and 0.01% propylparaben in purified MilliQ water vehicle.

[2] = Tissue distribution by quantitative whole-body autoradiography, blood and plasma radioactivity in LE rats (Group 3); assay type: in vivo, rat; settings: for Tissue to Plasma Ratio, Adrenal Gland / Tissue to Plasma Ratio, Heart / Tissue to Plasma Ratio, Kidney / Tissue to Plasma Ratio, Liver / Tissue to Plasma Ratio, Lung / Tissue to Plasma Ratio, Muscle / Tissue to Plasma Ratio, Skin / Tissue to Plasma Ratio, Spleen / Tissue to Plasma Ratio, Thyroid / Tissue to Plasma Ratio, Brain: rat
Protocol: as §1

[3] = Excretion mass balance in rats after a single oral dose of [14C]MGL-3196 (Group 1); assay type: in vivo, rat; settings: for Percent Recovery, Carcass / Percent Recovery, Residues / Percent Recovery, Total: totals up to 168 h
Protocol: as §1
The following studies have been conducted: (a) in vitro drug protein binding, transporter (organic anion transporting polypeptide [OATP], P-glycoprotein [P-gp], breast cancer-related protein [BCRP], and multiple drug resistance protein 1 [MDR1]), and cytochrome P-450 enzyme assays to investigate absorption, distribution, and excretion; (b) in vivo MGL-3196 rat and dog oral PK and bioavailability studies; (c) in vivo ^14C-MGL-3196 rat and dog oral pharmacokinetics, absorption, excretion, and tissue distribution by quantitative whole-body autoradiography (QWBA) studies; and (d) liver disposition of MGL-3196 using an in vitro sandwiched hepatocyte model system (B-CLEAR® technology) in dog (SCDH) and human (SCHH) hepatocytes.

[4] = Dog 14C-MGL-3196 mass balance study; assay type: in vivo
Text: Tables 2A-2B show ^14C-MGL-3196 dog ADME study design.

[5] = male SD rats Group 2, single PO 5 mg/kg
[6] = male LE rats Group 3, single PO 5 mg/kg
[7] = pigmented male rats, single PO dose
[8] = male SD rats Group 1, single PO 5 mg/kg, mean
[9] = male SD rats Group 1, single PO 5 mg/kg, mean, through 168 h
[10] = 3 male beagle dogs, 0-168 hr post-dose, Mean ± SD (% RSD)

CC(C)c1cc(Oc2c(Cl)cc(-n3nc(C#N)c(=O)[nH]c3=O)cc2Cl)n[nH]c1=O [[^14C]MGL-3196]
mean AUCinf obs of plasma total radioactivity [1, 5]: 25346 ng equiv·h/mL | mean Cmax of plasma total radioactivity [1, 5]: 2230 ng equiv/mL | radioactivity quantifiable in plasma through ([1]; male SD rats, last time point for this group): 48 h | Tissue to Plasma Ratio, Adrenal Gland ([2]; 1 h): 0.34 | Tissue to Plasma Ratio, Heart ([2]; 1 h): 0.30 | Tissue to Plasma Ratio, Kidney ([2]; 1 h): 3.51 | Tissue to Plasma Ratio, Liver ([2]; 1 h): 16.28 | Tissue to Plasma Ratio, Lung ([2]; 1 h): 0.41 | Tissue to Plasma Ratio, Muscle ([2]; 1 h): 0.12 | Tissue to Plasma Ratio, Skin ([2]; 1 h): 0.21 | Tissue to Plasma Ratio, Spleen ([2]; 1 h): 0.17 | Tissue to Plasma Ratio, Thyroid ([2]; 1 h): 0.27 | Tissue to Plasma Ratio, Adrenal Gland ([2]; 2 h): 0.35 | Tissue to Plasma Ratio, Heart ([2]; 2 h): 0.26 | Tissue to Plasma Ratio, Kidney ([2]; 2 h): 2.28 | Tissue to Plasma Ratio, Liver ([2]; 2 h): 12.40 | Tissue to Plasma Ratio, Lung ([2]; 2 h): 0.42 | Tissue to Plasma Ratio, Muscle ([2]; 2 h): 0.07 | Tissue to Plasma Ratio, Skin ([2]; 2 h): 0.23 | Tissue to Plasma Ratio, Spleen ([2]; 2 h): 0.10 | Tissue to Plasma Ratio, Thyroid ([2]; 2 h): 0.45 | Tissue to Plasma Ratio, Adrenal Gland ([2]; 4 h): 0.28 | Tissue to Plasma Ratio, Brain ([2]; 4 h): 0.03 | Tissue to Plasma Ratio, Heart ([2]; 4 h): 0.29 | Tissue to Plasma Ratio, Kidney ([2]; 4 h): 2.97 | Tissue to Plasma Ratio, Liver ([2]; 4 h): 12.76 | Tissue to Plasma Ratio, Lung ([2]; 4 h): 0.48 | Tissue to Plasma Ratio, Muscle ([2]; 4 h): 0.07 | Tissue to Plasma Ratio, Skin ([2]; 4 h): 0.30 | Tissue to Plasma Ratio, Spleen ([2]; 4 h): 0.13 | Tissue to Plasma Ratio, Thyroid ([2]; 4 h): 0.20 | Tissue to Plasma Ratio, Adrenal Gland ([2]; 8 h): 0.56 | Tissue to Plasma Ratio, Brain ([2]; 8 h): 0.09 | Tissue to Plasma Ratio, Heart ([2]; 8 h): 0.62 | Tissue to Plasma Ratio, Kidney ([2]; 8 h): 2.98 | Tissue to Plasma Ratio, Liver ([2]; 8 h): 11.90 | Tissue to Plasma Ratio, Lung ([2]; 8 h): 0.68 | Tissue to Plasma Ratio, Muscle ([2]; 8 h): 0.23 | Tissue to Plasma Ratio, Skin ([2]; 8 h): 0.72 | Tissue to Plasma Ratio, Spleen ([2]; 8 h): 0.36 | Tissue to Plasma Ratio, Thyroid ([2]; 8 h): 0.46 | Tissue to Plasma Ratio, Adrenal Gland ([2]; Cmax): 0.51 | Tissue to Plasma Ratio, Brain ([2]; Cmax): 0.08 | Tissue to Plasma Ratio, Heart ([2]; Cmax): 0.57 | Tissue to Plasma Ratio, Kidney ([2]; Cmax): 2.97 | Tissue to Plasma Ratio, Liver ([2]; Cmax): 12.76 | Tissue to Plasma Ratio, Lung ([2]; Cmax): 0.62 | Tissue to Plasma Ratio, Muscle ([2]; Cmax): 0.21 | Tissue to Plasma Ratio, Skin ([2]; Cmax): 0.65 | Tissue to Plasma Ratio, Spleen ([2]; Cmax): 0.33 | Tissue to Plasma Ratio, Thyroid ([2]; Cmax): 0.42 | Radioactivity concentrations at 1392 h post-dose in 7 of 40 tissues (blood, liver, Harderian gland, pancreas, pigmented skin, lung, eye lens) ([2]; male LE rats): > 7.90 ng equiv/g | radioactivity quantifiable in blood through ([2]; male LE rats): 768 h | radioactivity quantifiable in plasma through ([2]; male LE rats): 168 h | AUCinf obs of blood total radioactivity [2, 6]: 54361 ng equiv·h/g | AUCinf obs of plasma total radioactivity [2, 6]: 20430 ng equiv·h/mL | Cmax of plasma total radioactivity (by LSC) [2, 6]: 1078 ng equiv/mL | Liver AUC (exposure) higher than plasma [2, 7]: approximately 10 × | blood AUC higher than plasma [2, 7]: about 2 × | kidney cortex AUC higher than plasma [2, 7]: approximately 3 × | liver:plasma AUCall ratio [2, 7]: 10.5 | Liver AUC (exposure) higher than plasma ([2]; pigmented male rats, single PO dose, listed as 14C-MGL-3196): ~10 × | Tissue to plasma ratios for all tissues except liver, kidney, urinary bladder, and cecum ([2]; throughout the distribution phase (up to 8 h post-dose)): < 1 | Percent Recovery, Carcass ([3]; Mean): 1.1% | Percent Recovery, Residues ([3]; Mean): 1.3% | Percent Recovery, Total ([3]; Mean): 87.2% | Percent Recovery, Carcass ([3]; Ra#3): 1.0% | Percent Recovery, Residues ([3]; Ra#3): 0.9% | Percent Recovery, Total ([3]; Ra#3): 87.3% | Percent Recovery, Carcass ([3]; Rat#1): 1.1% | Percent Recovery, Residues ([3]; Rat#1): 1.7% | Percent Recovery, Total ([3]; Rat#1): 82.6% | Percent Recovery, Carcass ([3]; Rat#2): 1.2% | Percent Recovery, Residues ([3]; Rat#2): 1.3% | Percent Recovery, Total ([3]; Rat#2): 91.7% | radioactivity recovered in the cage residues, % of the administered dose [3, 8]: 1.3% | radioactivity recovered in the carcass, % of the administered dose [3, 8]: 1.1% | radioactivity recovered in the feces, % of the administered dose [3, 9]: 68.6% | radioactivity recovered in the urine, % of the administered dose [3, 9]: 16.2% | total recovery of radioactivity, % of the administered dose [3, 9]: 87.2% | % of Dose in Cage Residue [4, 10]: 4.55 ± 3.399 (74.8) % | % of Dose in Feces [4, 10]: 76.3 ± 25.62 (33.6) % | % of Dose in Urine [4, 10]: 2.57 ± 1.296 (50.4) % | Total % of Dose Recovered (urine + feces + cage residue) [4, 10]: 83.37 ± 24.063 (28.9) % | % of total administered recovered in feces ([4]; dog, 100 mg/kg): ~83% | % of total administered recovered in urine ([4]; dog, 100 mg/kg): 2.5% | share of the radioactivity recovered that was in feces ([4]; dog, 100 mg/kg): at least 92% | share of the radioactivity recovered that was in urine ([4]; dog, 100 mg/kg): 2.7%

From patent US11090308B2, “Methods of treating liver disorders or lipid disorders with a THR-beta agonist” (Madrigal Pharmaceuticals, Inc., priority 2016, dated 2021)
